Patent US11345666B2, “Phenyl and pyridinyl substituted imidazoles as modulators of RORγT” (Janssen Pharmaceutica NV, priority 2018, dated 2022)
Read-outs that look alike come from different tables or passages of the source. Marks after values point to notes of the source that are not given here.

Assays:
full-length human RORγt = full-length human RORγt (Homo sapiens (Human), UniProt P51449); experiment: RORγt (full-length human) reporter assay, conditions A or B; assay type: cell-based; conditions: for IC50: HEK293T cells, read-out: RORγt (FL) Reporter Assay A or B, IC50; for inhibition at 2 µM: 2 μM compound concentration (**); for inhibition at 6 µM: read-out: RORγt (FL) Reporter Assay A or B, % inhibition @ 6 μM, 6 μM compound concentration
How it was run: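 HEK293T cells transiently co-transfected (PEI) with GAL4-DBD–RORγt, GAL4-firefly luciferase and CMV-Renilla reporters; condition A 35,000 cells/well, 170.5 ng DNA/well; condition B 8750 cells/well, 42.6 ng DNA/well.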

[1] = tested on: IL-17 production by CD4 T cells; experiment: Human Th17 assay; assay type: cell-based; conditions: 72 h, IL-17 in supernatant after 3 days
Source text: The human Th17 assay tests the effect of RORγt modulatory compounds on IL-17 production by CD4 T cells under conditions which favor Th17 differentiation. Total CD4^+ T cells were isolated from the peripheral blood mononuclear cells (PBMC) of healthy donors using a CD4^+ T cell isolation kit II, following the manufacturer's instructions (Miltenyi Biotec). Cells were resuspended in a medium of RPMI-1640 supplemented with 10% fetal bovine serum, penicillin, streptomycin, glutamate, and β-mercaptoethanol and were added to 96-well plates at 1.5×10^5 per 100 μL per well. 50 μL of compound at titrated concentrations in DMSO were added into each well at final DMSO concentration at 0.2%. Cells were incubated for 1 hour, then 50 μL of Th17 cell differentiation medium was added to each well. The final concentrations of antibodies and cytokines (R&D Systems) in differentiation medium were: 3×10^6/mL anti-CD3/CD28 beads (prepared using human T cell activation/expansion kit, Miltenyi Biotec), 10 μg/mL anti-IL4, 10 μg/mL anti-IFNγ, 10 ng/mL IL1β, 10 ng/mL IL23, 50 ng/mL IL6, 3 ng/mL TGFβ and 20 U/mL IL2. Cells were cultured at 37° C. and 5% CO2 for 3 days. Supernatants were collected and the accumulated IL-17 in culture was measured by using MULTI-SPOT® Cytokine Plate following manufacture's instruction (Meso Scale Discovery). The plate was read using Sector Imager 6000, and IL-17 concentration was extrapolated from the standard curve. The IC50s were determined by GraphPad.

[2] = read-out: RORγt (FL) Reporter Assay A or B, % inhibition
[3] = 0.22 μM compound concentration (******), read-out: RORγt (FL) Reporter Assay A or B, % inhibition
[4] = 0.67 μM compound concentration (****), read-out: RORγt (FL) Reporter Assay A or B, % inhibition

Chain of full-length human RORγt (P51449 other isoform, or with tags, fused parts or gaps): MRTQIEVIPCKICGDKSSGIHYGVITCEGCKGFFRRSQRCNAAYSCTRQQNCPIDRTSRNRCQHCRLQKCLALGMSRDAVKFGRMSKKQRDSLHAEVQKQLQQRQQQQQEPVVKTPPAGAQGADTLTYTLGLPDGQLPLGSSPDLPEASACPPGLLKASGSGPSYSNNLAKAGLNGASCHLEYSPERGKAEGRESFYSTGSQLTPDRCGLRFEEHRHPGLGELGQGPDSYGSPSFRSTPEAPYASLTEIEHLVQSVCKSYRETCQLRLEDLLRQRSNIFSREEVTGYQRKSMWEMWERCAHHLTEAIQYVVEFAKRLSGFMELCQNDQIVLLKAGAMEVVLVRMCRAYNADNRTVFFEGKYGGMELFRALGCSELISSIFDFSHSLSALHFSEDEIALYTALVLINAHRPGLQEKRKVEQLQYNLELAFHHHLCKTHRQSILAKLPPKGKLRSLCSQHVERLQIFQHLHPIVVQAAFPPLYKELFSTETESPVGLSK

| SMILES | IC50 (full-length human RORγt) [nM] | IC50 [1] [nM] | further results |
| --- | --- | --- | --- |
| CCc1nc(C(=O)NC[C@H]2CC[C@H](S(C)(=O)=O)CC2)c(Cl)n1-c1ccc(CC(C)C(F)(F)F)cc1OC (single isomer, unassigned) [Example 6, 5-Chloro-2-ethyl-1-((1S*)-2-methoxy-4-(3,3,3-trifluoro-2-methylpropyl)phenyl)-N-(((1r,4S)-4-(methylsulfonyl)cyclohexyl)methyl)-1H-imidazole-4-carboxamide] | 6 | 2 | RORγt (FL) Reporter Assay A or B, % inhibition (full-length human RORγt; 0.67 μM compound concentration (****)): 99**** % |
| CCc1nc(C(=O)NC[C@H]2CC[C@H](S(C)(=O)=O)CC2)c(C)n1-c1ccc(CC(C)C(F)(F)F)cc1OC (single isomer, unassigned) [Example 7] | 12 | 7 | inhibition at 0.22 µM (full-length human RORγt; read-out: RORγt (FL) Reporter Assay A or B, % inhibition, 0.22 μM compound concentration (******)): 91% |
| CCc1nc(C(=O)NC[C@H]2CC[C@H](S(C)(=O)=O)CC2)c(Cl)n1-c1ncc(CC(C)(C)C(F)(F)F)cc1OC(F)F [Example 2, 5-Chloro-1-(3-(difluoromethoxy)-5-(3,3,3-trifluoro-2,2-dimethylpropyl)pyridin-2-yl)-2-ethyl-N-((4-(methylsulfonyl)cyclohexyl)methyl)-1H-imidazole-4-carboxamide] | 12 | 85 | inhibition at 1 µM (full-length human RORγt; 1 μM compound concentration (***), read-out: RORγt (FL) Reporter Assay A or B, % inhibition): 84% |
| CCc1nc(C(=O)NC[C@H]2CC[C@H](S(C)(=O)=O)CC2)c(Cl)n1-c1ccc(N[C@H](C)C(F)(F)F)cc1OC [Example 3, 5-Chloro-2-ethyl-1-(2-methoxy-4-(((R)-1,1,1-trifluoropropan-2-yl)amino)phenyl)-N-(((1r,4R)-4-(methylsulfonyl)cyclohexyl)methyl)-1H-imidazole-4-carboxamide] | 36 | 31 | inhibition at 2 µM (full-length human RORγt; [2]): 101% |
| CCc1nc(C(=O)NC[C@H]2CC[C@H](S(C)(=O)=O)CC2)c(F)n1-c1ccc(N[C@H](C)C(F)(F)F)cc1OC [Example 12, 2-Ethyl-5-fluoro-1-(2-methoxy-4-(((R)-1,1,1-trifluoropropan-2-yl)amino)phenyl)-N-(((1r,4R)-4-(methylsulfonyl)cyclohexyl)methyl)-1H-imidazole-4-carboxamide] | 160 | 220 | inhibition at 6 µM (full-length human RORγt): 109% |
| CCc1nc(C(=O)NC[C@H]2CC[C@H](S(C)(=O)=O)CC2)c(Cl)n1-c1ccc(CCC(F)(F)F)cc1F [Example 22, 5-Chloro-2-ethyl-1-(2-fluoro-4-(3,3,3-trifluoropropyl)phenyl)-N-(((1r,4r)-4-(methylsulfonyl)cyclohexyl)methyl)-1H-imidazole-4-carboxamide] | 15 | 42 | inhibition at 0.22 µM (full-length human RORγt; [3]): 38% |
| [2H]C([2H])([2H])Oc1cc(CC(C)(C)C(F)(F)F)ccc1-n1c(CC)nc(C(=O)NC[C@H]2CC[C@H](S(C)(=O)=O)CC2)c1C#N [Example 27, 5-Cyano-2-ethyl-1-(2-(methoxy-d3)-4-(3,3,3-trifluoro-2,2-dimethylpropyl)phenyl)-N-(((1r,4r)-4-(methylsulfonyl)cyclohexyl)methyl)-1H-imidazole-4-carboxamide] | 18 | 13 | inhibition at 0.67 µM (full-length human RORγt; [4]): 97% |
| CCc1nc(C(=O)NC[C@H]2CC[C@H](S(C)(=O)=O)CC2)c(C#N)n1-c1ccc(CC(C)(C)C(F)(F)F)cc1OC(F)F [Example 36, 5-Cyano-1-(2-(difluoromethoxy)-4-(3,3,3-trifluoro-2,2-dimethylpropyl)phenyl)-2-ethyl-N-(((1r,4r)-4-(methylsulfonyl)cyclohexyl)methyl)-1H-imidazole-4-carboxamide] | 13 | 8 | inhibition at 2 µM (full-length human RORγt; [2]): 101% |
| CCc1nc(C(=O)NC[C@]2(O)CC[C@@H](S(C)(=O)=O)CC2)c(Cl)n1-c1c(F)cc(CC(C)C)cc1F [Example 83, 5-Chloro-1-(2,6-difluoro-4-isobutylphenyl)-2-ethyl-N-(((1s,4s)-1-hydroxy-4-(methylsulfonyl)cyclohexyl)methyl)-1H-imidazole-4-carboxamide] | 120 | > 6000 | inhibition at 2 µM (full-length human RORγt; [2]): 23% |
| CCc1nc(C(=O)NC[C@]2(O)CC[C@@H](S(C)(=O)=O)CC2)c(Cl)n1-c1ccc(CC(C(F)(F)F)C(F)(F)F)cc1F [Example 100, 5-Chloro-2-ethyl-1-(2-fluoro-4-(3,3,3-trifluoro-2-(trifluoromethyl)propyl)phenyl)-N-(((1s,4s)-1-hydroxy-4-(methylsulfonyl)cyclohexyl)methyl)-1H-imidazole-4-carboxamide] | 6.7 | 58 | inhibition at 0.22 µM (full-length human RORγt; [3]): 100% |
| CCc1nc(C(=O)NC[C@]2(O)CC[C@@H](S(C)(=O)=O)CC2)c(C)n1-c1ccc(CC(C(F)(F)F)C(F)(F)F)cc1F [Example 109, 2-Ethyl-1-(2-fluoro-4-(3,3,3-trifluoro-2-(trifluoromethyl)propyl)phenyl)-N-(((1s,4s)-1-hydroxy-4-(methylsulfonyl)cyclohexyl)methyl)-5-methyl-1H-imidazole-4-carboxamide] | 22 | 79 | inhibition at 0.67 µM (full-length human RORγt; [4]): 97% |
| CCc1nc(C(=O)NC[C@]2(O)CC[C@@H](S(C)(=O)=O)CC2)c(C#N)n1-c1ccc(CC(C)(C)C(F)(F)F)cc1OC(F)(F)F [Example 111, 5-Cyano-2-ethyl-N-(((1s,4s)-1-hydroxy-4-(methylsulfonyl)cyclohexyl)methyl)-1-(4-(3,3,3-trifluoro-2,2-dimethylpropyl)-2-(trifluoromethoxy)phenyl)-1H-imidazole-4-carboxamide] | 86 | 69 | inhibition at 6 µM (full-length human RORγt): 99% |
